AC50 and viability fraction (lower = toxic) data for seven compounds are collected here from PubChem BioAssay AID588840 (Broad Institute, 2011).

One assay has as its system MDA-MB-231 viability, CellTiter-Glo luminescence, 72 h. As to the kind of experiment: MDA-MB-231 breast cancer cell growth inhibition, dose response, CellTiter-Glo luminescence, dry powder, set 2 (AID 588840).
Conditions: not given
In general terms: In ATP-based viability assays light output follows the ATP content of the culture.
The term AC50 denotes the midpoint of the concentration-response curve, whichever way the signal moves. As for `Cc1csc(NC(=O)c2ccc(COc3cccc(F)c3)o2)n1`, the half-maximal activity concentration (AC50) was 480 nM.

System in a further assay: not listed separately
The assay is described as above. The following applies: MDA-MB-231 viability, CellTiter-Glo luminescence, 72 h; at 32 µM (top of the series).
For the compound `O=C(/C=C/c1ccc(-c2ccccc2)cc1)NC1=NCCS1`, the viability fraction (lower = toxic) was found to be 76.4%.

Regarding `COc1ccc(/C=C/C(=O)NC2=NCCS2)c(OC)c1`, the viability fraction (lower = toxic) stood at 118%. For the compound `O=C(NC1CCCC1)c1ccc(COc2ccccc2)o1`, the viability fraction (lower = toxic) turned out to be 101%.

In the case of `Cc1ccc(/C=C/C(=O)NC2=NCCS2)cc1`, the viability fraction (lower = toxic) turned out to be 114%. Regarding `CC(C)c1ccc(/C=C/C(=O)NC2=NCCS2)cc1`, the viability fraction (lower = toxic) worked out at 34.6%. Still for that read-out and setting: the figure for `Cc1csc(NC(=O)c2ccc(COc3ccccc3)o2)n1` is 72.4%.
